Assay results: US11612606B2, “8-aminoisoquinoline compounds and uses thereof” (priority 2018, dated 2023)
Like-named read-outs stand apart in the source and are kept apart here.

Molecular target: HPK full length, T165E S171E (Homo sapiens (Human), UniProt Q92918, S171E/T165E)
Test: HPK1-FL HTRF enzymatic assay ("HTRF")
Assay type: biochemical
Conditions: ATP 1 mM
Method in brief: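 HTRF detection of phosphorylated biotin-SLP-76 used Eu-anti-pSLP76 antibody and SA-XL665, read after 60 min. The kinase reaction ran 60 min at […], following a 30-min compound preincubation with the full-length enzyme.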

HPK full length, T165E S171E, sequence (Q92918 whole entry T165E/S171E, looked up): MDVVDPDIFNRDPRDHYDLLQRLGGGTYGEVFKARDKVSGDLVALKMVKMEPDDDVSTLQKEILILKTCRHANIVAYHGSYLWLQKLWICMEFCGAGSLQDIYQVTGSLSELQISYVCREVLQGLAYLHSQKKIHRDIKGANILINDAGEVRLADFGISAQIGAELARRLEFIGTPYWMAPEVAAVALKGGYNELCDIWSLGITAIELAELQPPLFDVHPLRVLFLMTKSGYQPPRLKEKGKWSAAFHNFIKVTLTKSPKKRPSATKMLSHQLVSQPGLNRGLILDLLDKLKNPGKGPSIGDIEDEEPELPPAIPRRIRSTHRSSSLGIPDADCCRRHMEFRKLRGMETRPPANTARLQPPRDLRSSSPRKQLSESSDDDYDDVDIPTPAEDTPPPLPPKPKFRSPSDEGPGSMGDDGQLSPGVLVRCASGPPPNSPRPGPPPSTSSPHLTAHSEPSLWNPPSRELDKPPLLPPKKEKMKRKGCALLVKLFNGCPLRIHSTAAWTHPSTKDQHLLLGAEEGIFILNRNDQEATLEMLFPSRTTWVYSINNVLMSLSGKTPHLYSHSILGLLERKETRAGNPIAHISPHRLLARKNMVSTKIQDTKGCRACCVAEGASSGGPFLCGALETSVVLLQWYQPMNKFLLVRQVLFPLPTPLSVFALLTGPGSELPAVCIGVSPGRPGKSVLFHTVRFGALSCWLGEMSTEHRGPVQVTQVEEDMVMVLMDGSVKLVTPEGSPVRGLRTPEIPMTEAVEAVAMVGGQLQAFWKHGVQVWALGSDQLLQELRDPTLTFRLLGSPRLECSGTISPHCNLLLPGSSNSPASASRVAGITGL

Structure (SMILES) | Ki (read-out: HPK1 Ki) | Ki (HPK1 Ki)
Cc1c(-c2cc3cc(NC(=O)N[C@H]4C[C@H]4C)ncc3c(N)c2F)cnc2c1NCCO2 (single isomer, unassigned) [Compound 736a] | < 0.013 nM | 
Cc1c(-c2cc3cc(NC(=O)N[C@@H]4C[C@@H]4C)ncc3c(N)c2F)cnc2c1NCCO2 (single isomer, unassigned) [Compound 736b] | < 0.013 nM | 
Cc1c(-c2cc3cc(NC(=O)N[C@H]4CCOC[C@H]4F)ncc3c(N)c2F)cnc2c1NCCO2 (single isomer, unassigned) [Compound 747a] |  | < 0.013 nM
Cc1c(-c2cc3cc(NC(=O)N[C@@H]4CCOC[C@@H]4F)ncc3c(N)c2F)cnc2c1NCCO2 (single isomer, unassigned) [Compound 747b] |  | < 0.013 nM
CO[C@@H]1COCC[C@@H]1NC(=O)Nc1cc2cc(-c3cnc4c(c3C)NCCO4)c(F)c(N)c2cn1 (single isomer, unassigned) [Compound 750a] | 0.96 nM | 
CO[C@H]1COCC[C@H]1NC(=O)Nc1cc2cc(-c3cnc4c(c3C)NCCO4)c(F)c(N)c2cn1 (single isomer, unassigned) [Compound 750b] | < 0.013 nM | 
Cc1c(-c2cc3cc(NC(=O)OC4CN(C)C4)ncc3c(N)c2F)cnc2c1NCCO2 [Compound 402, 1-Methylazetidin-3-yl (8-amino-7-fluoro-6-(8-methyl-2,3-dihydro-1H-pyrido[2,3-b][1,4]oxazin-7-yl)isoquinolin-3-yl)carbamate] | 0.11 nM | 
Cc1c(-c2cc3cc(NC(=O)O[C@H]4CCOC4)ncc3c(N)c2F)cnc2c1NCCO2 [Compound 403b, (S)-Tetrahydrofuran-3-yl (8-amino-7-fluoro-6-(8-methyl-2,3-dihydro-1H-pyrido[2,3-b][1,4]oxazin-7-yl)isoquinolin-3-yl)carbamate] |  | 0.064 nM
Cc1c(-c2cc3cc(NC(=O)OC4CCNCC4)ncc3c(N)c2F)cnc2c1NCCO2 [Compound 404, Piperidin-4-yl (8-amino-7-fluoro-6-(8-methyl-2,3-dihydro-1H-pyrido[2,3-b][1,4]oxazin-7-yl)isoquinolin-3-yl)carbamate] | 0.03 nM | 
Cc1c(-c2cc3cc(NC(=O)OC4CC5COCC(C4)N5C)ncc3c(N)c2F)cnc2c1NCCO2 (centres unmarked) [Compound 406, 9-Methyl-3-oxa-9-azabicyclo[3.3.1]nonan-7-yl (8-amino-7-fluoro-6-(8-methyl-2,3-dihydro-1H-pyrido[2,3-b][1,4]oxazin-7-yl)isoquinolin-3-yl)carbamate] | 0.4 nM | 
Cc1c(-c2cc3cc(NC(=O)OC4CCN(C)CC4)ncc3c(N)c2F)cnc2c1NCCO2 [Compound 407, 1-Methylpiperidin-4-yl (8-amino-7-fluoro-6-(8-methyl-2,3-dihydro-1H-pyrido[2,3-b][1,4]oxazin-7-yl)isoquinolin-3-yl)carbamate] | 0.03 nM | 
Cc1c(-c2cc3cc(NC(=O)O[C@H]4CCC(=O)N(C)C4)ncc3c(N)c2F)cnc2c1NCCO2 [Compound 409a, (S)-1-Methyl-6-oxopiperidin-3-yl (8-amino-7-fluoro-6-(8-methyl-2,3-dihydro-1H-pyrido[2,3-b][1,4]oxazin-7-yl)isoquinolin-3-yl)carbamate] | 0.053 nM | 
Cc1c(-c2cc3cc(NC(=O)O[C@@H]4CCN(C)C4)ncc3c(N)c2F)cnc2c1NCCO2 [Compound 411b, (R)-1-Methylpyrrolidin-3-yl (8-amino-7-fluoro-6-(8-methyl-2,3-dihydro-1H-pyrido[2,3-b][1,4]oxazin-7-yl)isoquinolin-3-yl)carbamate] | 0.2 nM | 
Cc1c(-c2cc3cc(NC(=O)OC4CCOCC4)ncc3c(N)c2F)cnc2c1NCCC2O (centres unmarked) [Compound 413, Tetrahydro-2H-pyran-4-yl (8-amino-7-fluoro-6-(8-hydroxy-4-methyl-5,6,7,8-tetrahydro-1,5-naphthyridin-3-yl)isoquinolin-3-yl)carbamate] | 0.65 nM | 
Cc1c(-c2cc3cc(NC(=O)O[C@H]4CCCN(C)C4)ncc3c(N)c2F)cnc2c1NCCO2 [Compound 416b, (5)-1-Methylpiperidin-3-yl (8-amino-7-fluoro-6-(8-methyl-2,3-dihydro-1H-pyrido[2,3-b][1,4]oxazin-7-yl)isoquinolin-3-yl)carbamate] | 0.075 nM | 
Cc1c(-c2cc3cc(NC(=O)OC4CC5(C4)CN(C)C5)ncc3c(N)c2F)cnc2c1NCCO2 [Compound 417, 2-Methyl-2-azaspiro[3.3]heptan-6-yl (8-amino-7-fluoro-6-(8-methyl-2,3-dihydro-1H-pyrido[2,3-b][1,4]oxazin-7-yl)isoquinolin-3-yl)carbamate] | < 0.013 nM | 

Structure (SMILES) | Ki (read-out: HPK1 Ki) | Ki (HPK1 Ki)
Cc1c(-c2cc3cc(NC(=O)OC4CN(C(C)C)C4)ncc3c(N)c2F)cnc2c1NCCO2 [Compound 419, (1-Isopropylazetidin-3-yl) N-[8-amino-7-fluoro-6-(8-methyl-2,3-dihydro-1H-pyrido[2,3-b][1,4]oxazin-7-yl)-3-isoquinolyl]carbamate] | 0.061 nM | 
Cc1c(-c2cc3cc(NC(=O)OC4CN(CC(F)(F)F)C4)ncc3c(N)c2F)cnc2c1NCCO2 [Compound 420, 1-(2,2,2-Trifluoroethyl)azetidin-3-yl (8-amino-7-fluoro-6-(8-methyl-2,3-dihydro-1H-pyrido[2,3-b][1,4]oxazin-7-yl)isoquinolin-3-yl)carbamate] | < 0.013 nM | 
Cc1c(-c2cc3cc(NC(=O)OC4CCN(C5COC5)CC4)ncc3c(N)c2F)cnc2c1NCCO2 [Compound 421, 1-(Oxetan-3-yl)piperidin-4-yl (8-amino-7-fluoro-6-(8-methyl-2,3-dihydro-1H-pyrido[2,3-b][1,4]oxazin-7-yl)isoquinolin-3-yl)carbamate] | < 0.013 nM | 
Cc1c(-c2cc3cc(NC(=O)OC4CCN(CC(F)(F)F)CC4)ncc3c(N)c2F)cnc2c1NCCO2 [Compound 422, 1-(2,2,2-Trifluoroethyl)piperidin-4-yl (8-amino-7-fluoro-6-(8-methyl-2,3-dihydro-1H-pyrido[2,3-b][1,4]oxazin-7-yl)isoquinolin-3-yl)carbamate] | 0.023 nM | 
Cc1c(-c2cc3cc(NC(=O)OC4CC5(CCN(C)CC5)C4)ncc3c(N)c2F)cnc2c1NCCC2 [Compound 423, (7-Methyl-7-azaspiro[3.5]nonan-2-yl) N-[8-amino-7-fluoro-6-(4-methyl-5,6,7,8-tetrahydro-1,5-naphthyridin-3-yl)-3-isoquinolyl]carbamate] | < 0.013 nM | 
CC(=O)N1CC2(CC(OC(=O)Nc3cc4cc(-c5cnc6c(c5C)NCCO6)c(F)c(N)c4cn3)C2)C1 [Compound 424, 2-Acetyl-2-azaspiro[3.3]heptan-6-yl (8-amino-7-fluoro-6-(8-methyl-2,3-dihydro-1H-pyrido[2,3-b][1,4]oxazin-7-yl)isoquinolin-3-yl)carbamate] | < 0.013 nM | 
Cc1c(-c2cc3cc(NC(=O)OC4CC5(C4)CN(C)C5)ncc3c(N)c2F)cnc2c1NCCC2 [Compound 425, 2-Methyl-2-azaspiro[3.3]heptan-6-yl (8-amino-7-fluoro-6-(4-methyl-5,6,7,8-tetrahydro-1,5-naphthyridin-3-yl)isoquinolin-3-yl)carbamate] | < 0.013 nM | 
CC(=O)N1CC(OC(=O)Nc2cc3cc(-c4cnc5c(c4C)NCCO5)c(F)c(N)c3cn2)C1 [Compound 426, (1-Acetylazetidin-3-yl) N-[8-amino-7-fluoro-6-(8-methyl-2,3-dihydro-1H-pyrido[2,3-b][1,4]oxazin-7-yl)-3-isoquinolyl]carbamate] | < 0.013 nM | 
Cc1c(-c2cc3cc(NC(=O)OC4CC5(CCN(C)CC5)C4)ncc3c(N)c2F)cnc2c1NCCO2 [Compound 427, 7-Methyl-7-azaspiro[3.5]nonan-2-yl (8-amino-7-fluoro-6-(8-methyl-2,3-dihydro-1H-pyrido[2,3-b][1,4]oxazin-7-yl)isoquinolin-3-yl)carbamate] | < 0.013 nM | 
Cc1c(-c2cc3cc(NC(=O)OC4CC5(CCN(C)C5)C4)ncc3c(N)c2F)cnc2c1NCCO2 (centres unmarked) [Compound 428, 6-Methyl-6-azaspiro[3.4]octan-2-yl (8-amino-7-fluoro-6-(8-methyl-2,3-dihydro-1H-pyrido[2,3-b][1,4]oxazin-7-yl)isoquinolin-3-yl)carbamate] | < 0.013 nM | 
CC(=O)N1CC(OC(=O)Nc2cc3cc(-c4cnc5c(c4C)NCCC5)c(F)c(N)c3cn2)C1 [Compound 429, 1-Acetylazetidin-3-yl (8-amino-7-fluoro-6-(4-methyl-5,6,7,8-tetrahydro-1,5-naphthyridin-3-yl)isoquinolin-3-yl)carbamate formic acid] | 0.028 nM | 
Cc1c(-c2cc3cc(NC(=O)OC4CC5(CCN(C6COC6)CC5)C4)ncc3c(N)c2F)cnc2c1NCCC2 [Compound 430, 7-(Oxetan-3-yl)-7-azaspiro[3.5]nonan-2-yl (8-amino-7-fluoro-6-(4-methyl-5,6,7,8-tetrahydro-1,5-naphthyridin-3-yl)isoquinolin-3-yl)carbamate] | < 0.013 nM | 
Cc1c(-c2cc3cc(NC(=O)OC4C5CC4CN(C)C5)ncc3c(N)c2F)cnc2c1NCCO2 (centres unmarked) [Compound 431, 3-Methyl-3-azabicyclo[3.1.1]heptan-6-yl (8-amino-7-fluoro-6-(8-methyl-2,3-dihydro-1H-pyrido[2,3-b][1,4]oxazin-7-yl)isoquinolin-3-yl)carbamate] | 2.3 nM | 
Cc1c(-c2cc3cc(NC(=O)O[C@H]4[C@@H]5CN(C)C[C@@H]54)ncc3c(N)c2F)cnc2c1NCCO2 [Compound 432a, (1R,5S,6s)-3-Methyl-3-azabicyclo[3.1.0]hexan-6-yl (8-amino-7-fluoro-6-(8-methyl-2,3-dihydro-1H-pyrido[2,3-b][1,4]oxazin-7-yl)isoquinolin-3-yl)carbamate] | < 0.013 nM | 
Cc1c(-c2cc3cc(NC(=O)OC4CN(CC(F)F)C4)ncc3c(N)c2F)cnc2c1NCCO2 [Compound 434, 1-(2,2-Difluoroethyl)azetidin-3-yl (8-amino-7-fluoro-6-(8-methyl-2,3-dihydro-1H-pyrido[2,3-b][1,4]oxazin-7-yl)isoquinolin-3-yl)carbamate] | < 0.013 nM | 
Cc1c(-c2cc3cc(NC(=O)OC4CCN(C)CC4(C)C)ncc3c(N)c2F)cnc2c1NCCO2 (centres unmarked) [Compound 435, (1,3,3-Trimethyl-4-piperidyl) N-[8-amino-7-fluoro-6-(8-methyl-2,3-dihydro-1H-pyrido[2,3-b][1,4]oxazin-7-yl)-3-isoquinolyl]carbamate] | 0.187 nM | 
